From PubChem BioAssay (NCI)
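GI50 = concentration required for 50% inhibition of growth. TGI: total growth inhibition.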

Columns and labels:
Experiment in all cases: NCI anticancer screen, dose series, 384-well format
NCI-H460 NSCLC = test system: NCI-H460 NSCLC
TK-10 renal = test system: TK-10 renal
SNB-19 CNS = test system: SNB-19 CNS
SK-MEL-2 melanoma = test system: SK-MEL-2 melanoma
NCI-H322M lung = test system: NCI-H322M lung
RPMI-8226 leukemia = test system: RPMI-8226 leukemia
NCI/ADR-RES ovarian = test system: NCI/ADR-RES ovarian
HOP-62 NSCLC = test system: HOP-62 NSCLC
A498 renal = test system: A498 renal
HCC-2998 colon = test system: HCC-2998 colon
LOX IMVI melanoma = test system: LOX IMVI melanoma
K-562 leukemia = test system: K-562 leukemia
HT29 colon = test system: HT29 colon
PC-3 prostate = test system: PC-3 prostate
HOP-92 NSCLC = test system: HOP-92 NSCLC
OVCAR-4 ovarian = test system: OVCAR-4 ovarian
EKVX NSCLC = test system: EKVX NSCLC
HCT-116 colon = test system: HCT-116 colon
COLO 205 colon = test system: COLO 205 colon
T-47D breast = test system: T-47D breast
SF-539 CNS = test system: SF-539 CNS
CAKI-1 renal = test system: CAKI-1 renal
MDA-MB-468 breast = test system: MDA-MB-468 breast
SNB-75 CNS = test system: SNB-75 CNS
MALME-3M melanoma = test system: MALME-3M melanoma
ACHN renal = test system: ACHN renal
MCF7 breast = test system: MCF7 breast
SR leukemia = test system: SR leukemia
SW-620 colon = test system: SW-620 colon
BT-549 breast = test system: BT-549 breast
UO-31 renal = test system: UO-31 renal
UACC-62 melanoma = test system: UACC-62 melanoma
CCRF-CEM leukemia = test system: CCRF-CEM leukemia
MOLT-4 leukemia = test system: MOLT-4 leukemia
KM12 colon = test system: KM12 colon
SF-268 CNS = test system: SF-268 CNS
SK-MEL-5 melanoma = test system: SK-MEL-5 melanoma
NCI-H226 lung = test system: NCI-H226 lung
MDA-MB-231 breast = test system: MDA-MB-231 breast
SK-MEL-28 melanoma = test system: SK-MEL-28 melanoma
HCT-15 colon = test system: HCT-15 colon
IGROV1 ovarian = test system: IGROV1 ovarian
DU-145 prostate = test system: DU-145 prostate
UACC-257 melanoma = test system: UACC-257 melanoma
MDA-MB-435 melanoma = test system: MDA-MB-435 melanoma
HS 578T breast = test system: HS 578T breast
A549 NSCLC = test system: A549 NSCLC
SK-OV-3 ovarian = test system: SK-OV-3 ovarian
HL-60(TB) leukemia = test system: HL-60(TB) leukemia
U251 glioblastoma = test system: U251 glioblastoma
OVCAR-3 ovarian = test system: OVCAR-3 ovarian
NCI-H522 lung = test system: NCI-H522 lung
OVCAR-5 ovarian = test system: OVCAR-5 ovarian
SF-295 CNS = test system: SF-295 CNS
OVCAR-8 ovarian = test system: OVCAR-8 ovarian
786-0 renal = test system: 786-0 renal
RXF 393 renal = test system: RXF 393 renal
SN12C renal = test system: SN12C renal

SMILES: CCOc1cc(-c2nncn2C)ccc1Nc1ncc2cc(C)nc(NCC(C)(C)C)c2n1
- GI50 (NCI-H460 NSCLC): 0.169 µM
- TGI (NCI-H460 NSCLC): > 100 µM
- GI50 (TK-10 renal): 3.89 µM
- TGI (TK-10 renal): > 100 µM
- GI50 (SNB-19 CNS): 86.7 µM
- TGI (SNB-19 CNS): > 100 µM
- GI50 (SK-MEL-2 melanoma): > 100 µM
- TGI (SK-MEL-2 melanoma): > 100 µM
- GI50 (NCI-H322M lung): > 100 µM
- TGI (NCI-H322M lung): > 100 µM
- GI50 (RPMI-8226 leukemia): 0.3 µM
- TGI (RPMI-8226 leukemia): 3.77 µM
- GI50 (NCI/ADR-RES ovarian): 0.618 µM
- TGI (NCI/ADR-RES ovarian): > 100 µM
- GI50 (HOP-62 NSCLC): 0.23 µM
- TGI (HOP-62 NSCLC): > 100 µM
- GI50 (A498 renal): 0.548 µM
- TGI (A498 renal): > 100 µM
- GI50 (HCC-2998 colon): > 100 µM
- TGI (HCC-2998 colon): > 100 µM
- GI50 (LOX IMVI melanoma): 0.179 µM
- TGI (LOX IMVI melanoma): > 100 µM
- GI50 (K-562 leukemia): 0.918 µM
- TGI (K-562 leukemia): > 100 µM
- GI50 (HT29 colon): > 100 µM
- TGI (HT29 colon): > 100 µM
- GI50 (PC-3 prostate): 18 µM
- TGI (PC-3 prostate): > 100 µM
- GI50 (HOP-92 NSCLC): > 100 µM
- TGI (HOP-92 NSCLC): > 100 µM
- GI50 (OVCAR-4 ovarian): > 100 µM
- TGI (OVCAR-4 ovarian): > 100 µM
- GI50 (EKVX NSCLC): 2.05 µM
- TGI (EKVX NSCLC): > 100 µM
- GI50 (HCT-116 colon): 0.062 µM
- TGI (HCT-116 colon): > 100 µM
- GI50 (COLO 205 colon): 0.196 µM
- TGI (COLO 205 colon): > 100 µM
- GI50 (T-47D breast): 7.93 µM
- TGI (T-47D breast): > 100 µM
- GI50 (SF-539 CNS): 0.351 µM
- TGI (SF-539 CNS): > 100 µM
- GI50 (CAKI-1 renal): > 100 µM
- TGI (CAKI-1 renal): > 100 µM
- GI50 (MDA-MB-468 breast): 0.578 µM
- TGI (MDA-MB-468 breast): 7.02 µM
- GI50 (SNB-75 CNS): > 100 µM
- TGI (SNB-75 CNS): > 100 µM
- GI50 (MALME-3M melanoma): 37.1 µM
- TGI (MALME-3M melanoma): > 100 µM
- GI50 (ACHN renal): 1.77 µM
- TGI (ACHN renal): > 100 µM
- TGI (MCF7 breast): > 100 µM
- GI50 (SR leukemia): 0.139 µM
- TGI (SR leukemia): 0.333 µM
- GI50 (SW-620 colon): 0.304 µM
- TGI (SW-620 colon): > 100 µM
- GI50 (BT-549 breast): 0.85 µM
- TGI (BT-549 breast): > 100 µM
- GI50 (UO-31 renal): 0.514 µM
- TGI (UO-31 renal): > 100 µM
- GI50 (UACC-62 melanoma): > 100 µM
- TGI (UACC-62 melanoma): > 100 µM
- GI50 (CCRF-CEM leukemia): 0.0772 µM
- TGI (CCRF-CEM leukemia): 0.278 µM
- GI50 (MOLT-4 leukemia): 0.0223 µM
- TGI (MOLT-4 leukemia): 0.0463 µM
- GI50 (KM12 colon): 0.0967 µM
- TGI (KM12 colon): > 100 µM
- GI50 (SF-268 CNS): 10.5 µM
- TGI (SF-268 CNS): > 100 µM
- GI50 (SK-MEL-5 melanoma): 0.461 µM
- TGI (SK-MEL-5 melanoma): > 100 µM
- GI50 (NCI-H226 lung): 15.9 µM
- TGI (NCI-H226 lung): > 100 µM
- GI50 (MDA-MB-231 breast): 47.8 µM
- TGI (MDA-MB-231 breast): > 100 µM
- GI50 (SK-MEL-28 melanoma): > 100 µM
- TGI (SK-MEL-28 melanoma): > 100 µM
- GI50 (HCT-15 colon): 0.0738 µM
- TGI (HCT-15 colon): > 100 µM
- GI50 (IGROV1 ovarian): > 100 µM
- TGI (IGROV1 ovarian): > 100 µM
- GI50 (DU-145 prostate): 0.365 µM
- TGI (DU-145 prostate): > 100 µM
- GI50 (UACC-257 melanoma): > 100 µM
- TGI (UACC-257 melanoma): > 100 µM
- GI50 (MDA-MB-435 melanoma): > 100 µM
- TGI (MDA-MB-435 melanoma): > 100 µM
- GI50 (HS 578T breast): 0.188 µM
- TGI (HS 578T breast): > 100 µM
- GI50 (A549 NSCLC): 0.0992 µM
- TGI (A549 NSCLC): > 100 µM
- GI50 (SK-OV-3 ovarian): > 100 µM
- TGI (SK-OV-3 ovarian): > 100 µM
- GI50 (HL-60(TB) leukemia): 0.266 µM
- TGI (HL-60(TB) leukemia): 0.587 µM
- GI50 (U251 glioblastoma): 0.46 µM
- TGI (U251 glioblastoma): > 100 µM
- GI50 (OVCAR-3 ovarian): 0.969 µM
- TGI (OVCAR-3 ovarian): > 100 µM
- GI50 (NCI-H522 lung): 0.669 µM
- TGI (NCI-H522 lung): > 100 µM
- GI50 (OVCAR-5 ovarian): 1.33 µM
- TGI (OVCAR-5 ovarian): > 100 µM
- GI50 (SF-295 CNS): > 100 µM
- TGI (SF-295 CNS): > 100 µM
- GI50 (OVCAR-8 ovarian): 0.377 µM
- TGI (OVCAR-8 ovarian): > 100 µM
- GI50 ([…]-0 renal): 0.468 µM
- TGI (786-0 renal): > 100 µM
- GI50 (RXF 393 renal): 1.34 µM
- TGI (RXF 393 renal): 99.1 µM
- GI50 (SN12C renal): > 100 µM
- TGI (SN12C renal): > 100 µM
